The values that follow come from US7560106B2, “Rationally designed heparinases derived from heparinase I and II and methods of sequencing therewith” (Massachusetts Institute of Technology, priority 1998, dated 2009).

For orientation: IC50 means the concentration at which inhibition is half-maximal.

For series [1], the target named is T1, heparinase II (Pedobacter heparinus, UniProt C6XZB6).
T1 sequence (C6XZB6 26-772): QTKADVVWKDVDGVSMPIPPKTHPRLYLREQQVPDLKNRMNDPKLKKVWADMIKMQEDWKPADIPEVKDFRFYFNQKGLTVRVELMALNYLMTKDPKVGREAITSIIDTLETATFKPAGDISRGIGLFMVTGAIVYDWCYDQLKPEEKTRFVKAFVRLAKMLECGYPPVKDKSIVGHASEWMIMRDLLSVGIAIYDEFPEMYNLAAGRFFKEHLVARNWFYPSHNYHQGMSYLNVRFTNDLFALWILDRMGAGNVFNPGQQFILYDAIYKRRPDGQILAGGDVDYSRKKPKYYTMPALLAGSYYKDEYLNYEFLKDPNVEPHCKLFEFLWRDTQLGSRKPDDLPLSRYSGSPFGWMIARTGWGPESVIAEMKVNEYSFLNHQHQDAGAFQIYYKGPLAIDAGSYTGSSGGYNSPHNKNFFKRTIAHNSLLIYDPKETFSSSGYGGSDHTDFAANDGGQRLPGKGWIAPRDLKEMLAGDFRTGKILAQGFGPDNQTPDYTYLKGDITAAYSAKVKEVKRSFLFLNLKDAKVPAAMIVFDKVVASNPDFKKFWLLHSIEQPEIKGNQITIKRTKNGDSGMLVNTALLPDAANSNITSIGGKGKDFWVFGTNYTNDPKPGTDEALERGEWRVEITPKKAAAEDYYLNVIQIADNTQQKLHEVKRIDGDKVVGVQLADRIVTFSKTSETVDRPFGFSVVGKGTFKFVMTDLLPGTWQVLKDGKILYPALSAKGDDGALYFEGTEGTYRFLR
In words: 4-VP, NEM, IAA and IAM inactivation of heparinase II. It counts as biochemical, Flavobacterium heparinum. How it is done: 4-VP, NEM IAA, and AM Inactivation Heparinase II (100 μg/ml) was incubated with varying concentrations of either 4-VP, NEM, IAA or IAM (Lundblad, R. L. (1995) Techniques in Protein Modification. pp. 63-91, CRC Press, Boca Raton). Aqueous stock solutions ([…]) of each reagent was prepared immediately before use. For NEM and 4-VP the concentrations of modifying reagent were varied from 0.2-2 mM. In the case of IAA or IAM, the concentrations of the reagent ranged from 1-10 mM. All reactions were conducted in 50 mM sodium-phosphate buffer, pH 7.0, at room temperature. The time course of inactivation was monitored in each case, time courses for each of the reagents were compared using either heparin or heparan sulfate as the substrate.

Series [2] addresses T1, heparinase II. In words: DTNB modification and inactivation of heparinase II. The format is biochemical, Flavobacterium heparinum. The text has this: Heparinase II Activity Assay. Native heparinase II from Flavobacterium heparinum, was purified as described previously (Godavarti, R., and Sasisekharan, R (1996c) Biochem. Biophys. Res. Comm. 229, 770-777). The UV 232 nm assay to quantify native heparinase II enzymatic activity was similar to that reported for heparinase I (Bernstein, H., Yang, V. C., Cooney, C. L., Langer, R. (1988) Meth. Enzym. 137, 515-29). Briefly, the course of the reaction is monitored by measuring the increase in absorbance at 232 nm as a function of time under saturating substrate concentrations. With heparin as the substrate, the reaction was carried out at a concentration of 4 mg/ml in 50 mM sodium phosphate buffer, pH 7.3. With 2 mg/ml heparan sulfate, the reaction was measured in 50 mM sodium phosphate buffer, pH 6.9 (Sasisekharan, R., Moses, M. A., Nugent, M. A., Cooney, C. L., Langer, R. (1994) Proc. Natl. Acad. Sci., USA 91, 1524-1528). The temperature for all enzymatic activity measurements was kept constant at 35° C.
DTNB Modification Studies. (A) Inactivation with DTNB. Heparinase II (100 μg/ml) was incubated with DTNB (0.1-0.5 mM). A DTNB stock solution was made by dissolving DTNB in ethanol and an aliquot was added to the reaction mixture (Lundblad, R. L. (1995) Techniques in Protein Modification. pp. 63-91, CRC Press, Boca Raton).
(B) Quantification of DTNB—modified residues of heparinase II. Quantification of DTNB-modified heparinase II residues was determined by difference spectra. At time zero, 2 mM DTNB was added to the sample cuvette containing heparinase II (825 μg/ml) in sodium phosphate buffer, pH 7.0. The change in absorbance at 410 nm was monitored every. 30 seconds for 10 minutes. To account for the decomposition of DTNB in the reaction mixture, a control was also done by monitoring the change in absorbance at 410 nm with only DTNB (2 mM) in 50 mM sodium phosphate buffer, pH 7.0. Heparinase II activity assays were also performed on the reaction mixture. The number of heparinase II cysteine residues modified was determined using ∈=13,600 M cm^−1 (Lundblad, R. L. (1995) Techniques in Protein Modification. pp. 63-91, CRC Press, Boca Raton). A similar experiment was completed after preincubating the enzyme with heparin for 30 minutes.

The target in series [3] is T2, heparinase I (Pedobacter heparinus, UniProt Q05819). In words: Effect of lanthanides on heparinase I activity (232 nm assay). It counts as biochemical, Flavobacterium heparinum. The conditions noted are these: 15 minutes preincubation; 4 mg/mL heparin, 5 mM calcium, pH 6.5.
For series [4], the target named is T2, heparinase I. It counts as binding, Flavobacterium heparinum.
Series [5] deals with T2, heparinase I. The format is biochemical, Flavobacterium heparinum. The conditions noted are these: 30 minutes preincubation, 50 μM WRK, pH 7.
Series [6] is described as follows: Exhaustive digest and HPLC analysis of saccharide products of heparinase II and mutants, heparin substrate. The conditions noted are these: exhaustive digest 18 hours at 30° C.
Experimental: HPLC Analysis of Saccharide Products of Heparinase II Activity. Heparin or heparan sulfate was degraded by heparinase II or one of the recombinant heparinases for 18 h at 30° C. The reaction was stopped by boiling and the samples were injected onto a POROS Q/M (4.6×100 mm) anion-exchange column connected to a BIOCAD system (PerSeptive Biosystems, Framingham, Mass.) (Godavarti, R., and Sasisekharan, R (1996c) Biochem. Biophys. Res. Comm. 229, 770-777). A salt gradient of 0-2 M NaCI in 10 mM Tris pH 7.0 was run and products were monitored at 232 nm.
Exhaustive digests of both 4 mg/ml heparin and 2 mg/ml heparan sulfate were completed and the resulting products analyzed with a Perfusion Chromatography system in a fashion similar to the analysis completed for heparinase I (Godavarti, R., and Sasisekharan, R (1996c) Biochem. Biophys. Res. Comm. 229, 770-777). Running buffer used as 10 mM Tris, pH 7.0 and the salt gradient was 0-2 M NaCl over the course of ten minutes.
After purification, each of these four wild-type and mutant enzymes was characterized via exhaustive (i.e., 18 hours at 30° C.) substrate digests to determine product profiles. Perfusion chromatography profiles of the desaccharide products of the three cysteine mutants and the r-heparinase II were analyzed using either heparin and heparan sulfate as the substrate.
The conditions of series [7]: absence of calcium; shown previously; cited from earlier work.
A short description of series [8]: Heparinase I activity as a function of calcium concentration (K0.5, calcium dependence). The format is biochemical. The procedure, abridged:
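Heparinase I mutant activity was measured by UV absorbance at 232 nm in 100 mM MOPS, pH 7.0, with calcium varied from 0 to 10 mM. Activity is given as IU (μmol product/min) using ε=−3800 M^−1cm^−1.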

Series [9] in a line: Processivity of heparinase I on heparin. The format is biochemical.
Setting [10] is: 2 mM DTNB, 10 minutes, enzyme preincubated with heparin.
Setting [11] is: 2 mM DTNB, 10 minutes, without heparin preincubation.

Where a chain is given by its changes, count along the chain named. Names may count otherwise.

With `C=Cc1ccncc1` [4-VP, 4-vinylpyridine], in series [1], the “inhibition of heparinase II activity, in words” value (from here on “inhibition”) is listed as “inhibited heparinase II activity in a dose-dependent fashion”.

Turning to `O=C(O)c1cc(SSc2ccc([N+](=O)[O-])c(C(=O)O)c2)ccc1[N+](=O)[O-]` [DTNB, 5,5′-dithiobis-(2-nitrobenzoic acid)], in [2] (setting [10]), the loss of activity came out at 25% and the “number of cysteines modified” value stood at 1.3 cysteines. In series [2] (setting [11]), the “loss of initial activity” value came out at 80% and the “number of cysteines modified” value is given as 2.4 cysteines. Besides, in series [2] (DTNB 0-0.5 mM, read-out: second-order rate constant of inactivation (converted)), the kinact/KI is 10.2 M⁻¹ s⁻¹.

Turning to `O=C(O)CI` [IAA, iodoacetic acid], the “inhibition” value in series [1] is reported as “least effective”.

As for `[Lu+3]` [Lu^3+, lutetium], in [3], the IC50 was determined as 212 µM.

For the molecule `CCN1C(=O)C=CC1=O` [NEM, N-ethylmaleimide], in [1], the “inhibition” value is reported as “inhibited heparinase II activity in a dose-dependent fashion”.

On to `[Ca+2]` [calcium], for which the “calcium concentration sufficient to compete with terbium for binding to heparinase I” value in [4] is recorded as 2 mM. Also, the “K0.5 of protection from WRK-mediated inactivation” value in series [5] stood at 980 µM.

For the molecule `[Tb+3]` [terbium], the “terbium equivalents at which fluorescence intensity stops increasing” value in series [4] stood at 10 equivalents. Further, in series [3], the IC50 amounted to 39 µM.

B1: C189A: heparinase II cysteine to alanine mutant at position 189 (protein, UniProt C6XZB6 26-772, looked up, variant C189A)
Heparin and heparin-sulfate …: T1 sequence (C6XZB6 26-772) with C164A
Take B1: the “degradation product profile, heparin substrate” value in series [6] is “closely matched those of both r-heparinase II and native heparinase II”.

B2: C348A: heparinase II cysteine to alanine mutant at position 348 (protein, UniProt C6XZB6 26-772, looked up, variant C348A)
Heparin and heparin-sulfate …: T1 sequence (C6XZB6 26-772) with C323A
modifications: heparinase II
As for B2, the “degradation product profile, heparin substrate” value in series [6] is “completely inactive”.

B3: heparinase I: 42,500 Da enzyme from the periplasm of F. heparinum that degrades heparin-like glycosaminoglycans (protein, listed as Flavobacterium heparinum)
chain: MKKQILYLIVLQQLFLCSAYAQQKKSGNIPYRVNVQADSAKQKAIIDNKWVAVGINKPYALQYDDKLRFNGKPSYRFELKAEDNSLEGYAAGETKGRTELSYSYATTNDFKKFPPSVYQNAQKLKTVYHYGKGICEQGSSRSYTFSVYIPSSFPDNATTIFAQWHGAPSRTLVATPEGEIKTLSIEEFLALYDRMIFKKNIAHDKVEKKDKDGKITYVAGKPNGWKVEQGGYPTLAFGFSKGYFYIKANSDRQWLTDKADRNNANPENSEVMKPYSSEYKTSTIAYKMPFAQFPKDCWITFDVAIDWTKYGKEANTILKPGKLDVMMTYTKNKKPQKAHIVNQQEILIGRNDDDGYYFKFGIYRVGNSTVPVTYNLSGYSETAR
On to B3, for which the “salt concentration of elution from heparin-POROS column” value in series [7] is given as “around 500 mM”. In [8], the “activity in 2 mm Ca++ relative to absence of calcium” value was ~10 × and the “increase in activity upon introduction of millimolar concentrations of calcium” value is “five-fold increase in activity”. Moreover, the processivity in series [9] is on record as ~90%.
